According to patent US12070509B2, “Nucleic acids and methods of treatment for cystic fibrosis” (Arcturus Therapeutics, Inc., priority 2020, dated 2024):

Molecular target: T1, CFTR channels (Homo sapiens, UniProt P13569)
T1 construct: 1835; Cap1; TEV; Yes; XBG; 53; expressed in transfected cells; host or cells: FRT (Fischer rat thyroid) cells in air-liquid interface culture, transfected with unformulated hCFTR mRNA
Assay: Transepithelial conductance (Gt) in Air-Liquid Interface culture of transfected FRT cells
Type: cell-based
Conditions: FRT cells transfected with constructs 2099.1 and 1835.1 (FIG. 12); sequential Forskolin, VX770, Inh-172
Procedure: Further studies were conducted to assess the activity of hCFTR proteins expressed by selected mRNA constructs and whether these can properly open and close to allow proper ion transport. In these studies, an Air-Liquid Interface (ALI) cell culture model of FRT cells was used to transfect an unformulated subset of codon-optimized hCFTR mRNAs at different doses ranging from 0.5 μg-2 μg of mRNA (the 2 μg dose is not shown) into the FRT cells. ALI is a method of cell culture by which polarized cells are generated with their basal surfaces in contact with media, and the top of the cellular layer is exposed to the air. This model helps to mimic the cellular structure of in vivo airways.
At 24 hours post-transfection, transepithelial conductance (Gt) of the cells over time was measured as an indicator of CFTR activity. Initially, Gt was measured with the transfected or control cells unperturbed. Then, a sequential process of CFTR activation (channel opening), enhancement (gating promotion) and closing of the CFTR channels was performed. The hCFTR constructs used in this study were 1835.1 (SEQ ID NO: 53), 2093.1 (SEQ ID NO: 66), 2095.1 (SEQ ID NO: 68), 2096.1 (SEQ ID NO: 69), and 2099.1 (SEQ ID NO: 72). In addition, controls were performed using a reference sequence of construct 764.1 (SEQ ID NO: 47) and untransfected cells. […]

T1 sequence (P13569 whole entry): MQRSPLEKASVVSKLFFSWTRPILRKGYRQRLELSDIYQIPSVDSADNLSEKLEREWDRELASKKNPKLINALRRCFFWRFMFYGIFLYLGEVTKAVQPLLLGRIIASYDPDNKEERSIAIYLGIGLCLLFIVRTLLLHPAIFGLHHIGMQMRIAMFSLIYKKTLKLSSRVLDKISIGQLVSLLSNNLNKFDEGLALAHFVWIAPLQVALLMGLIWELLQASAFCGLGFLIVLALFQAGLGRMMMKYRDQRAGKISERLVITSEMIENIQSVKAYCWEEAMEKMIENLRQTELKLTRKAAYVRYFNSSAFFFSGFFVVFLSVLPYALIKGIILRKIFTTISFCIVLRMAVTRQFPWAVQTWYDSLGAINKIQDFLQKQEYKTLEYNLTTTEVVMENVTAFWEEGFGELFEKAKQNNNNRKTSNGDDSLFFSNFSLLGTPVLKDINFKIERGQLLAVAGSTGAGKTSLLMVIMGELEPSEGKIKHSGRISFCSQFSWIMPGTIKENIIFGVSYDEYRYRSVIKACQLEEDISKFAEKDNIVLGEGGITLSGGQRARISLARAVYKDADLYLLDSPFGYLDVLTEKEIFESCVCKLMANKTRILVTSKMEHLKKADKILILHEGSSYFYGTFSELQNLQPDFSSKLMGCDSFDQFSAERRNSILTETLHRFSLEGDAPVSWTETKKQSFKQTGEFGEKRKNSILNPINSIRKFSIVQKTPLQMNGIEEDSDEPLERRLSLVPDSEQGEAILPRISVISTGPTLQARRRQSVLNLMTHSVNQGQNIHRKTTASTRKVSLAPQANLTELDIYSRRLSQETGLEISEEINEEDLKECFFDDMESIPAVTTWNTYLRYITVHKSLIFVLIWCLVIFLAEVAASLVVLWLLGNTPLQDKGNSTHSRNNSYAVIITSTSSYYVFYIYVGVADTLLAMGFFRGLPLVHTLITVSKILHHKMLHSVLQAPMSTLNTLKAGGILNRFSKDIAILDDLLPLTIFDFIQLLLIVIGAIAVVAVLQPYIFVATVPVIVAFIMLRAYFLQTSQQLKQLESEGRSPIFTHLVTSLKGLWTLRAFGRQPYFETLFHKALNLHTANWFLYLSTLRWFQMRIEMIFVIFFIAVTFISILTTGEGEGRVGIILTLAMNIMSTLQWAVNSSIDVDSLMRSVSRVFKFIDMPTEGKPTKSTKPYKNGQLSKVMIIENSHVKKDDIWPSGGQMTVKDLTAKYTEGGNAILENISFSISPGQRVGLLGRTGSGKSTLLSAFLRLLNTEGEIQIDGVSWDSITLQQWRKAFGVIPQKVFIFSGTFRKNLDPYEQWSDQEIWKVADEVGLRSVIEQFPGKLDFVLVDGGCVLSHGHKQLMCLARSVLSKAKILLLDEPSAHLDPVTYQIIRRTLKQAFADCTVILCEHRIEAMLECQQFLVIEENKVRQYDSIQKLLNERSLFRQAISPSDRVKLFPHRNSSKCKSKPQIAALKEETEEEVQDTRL

SMILES | Change in Gt on introduction of CFTR modulator
O=C(O)c1ccc(C=C2SC(=S)N(c3cccc(C(F)(F)F)c3)C2=O)cc1 [Inh-172, reference compound] | decline in Gt
CC(C)(C)c1cc(C(C)(C)C)c(NC(=O)c2c[nH]c3ccccc3c2=O)cc1O [VX770, reference compound] | second increase in Gt
